Seven compounds from ChEMBL document CHEMBL1201862, “PubChem BioAssay data set” (2004) can be followed below.

Some test systems named below: 786-0; A498; ACHN; BT-549; CAKI-1; Hs-578T; K562; LOX IMVI; MCF7; NCI-H460; NCI-H522; NCI/ADR-RES; OVCAR-4; SF-268; SF-295; SK-OV-3; SN12C; TK-10; U-251; NCI-H226.
Holding throughout (test): DTP human tumour cell line panel, 48 h

In general, GI50 refers to the concentration giving 50% growth inhibition.

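Dose response: 5 concentrations. Exposure: 48 h. Format: 96-well plates. Endpoint: linear interpolation; highest concentration if not reached. GI50 = concentration required for 50% inhibition of growth.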 Active and inactive are the calls of the source. Cut-off read from the data, not from the text of the source: active = GI50 up to about 1.1 µM and inactive = higher.

For the compound `CC1(C)OC(CP(c2ccccc2)c2ccccc2)C(CP(c2ccccc2)c2ccccc2)O1` (stereo not drawn), the GI50 with 786-0 is 1.83 µM (inactive); with A498, 3.39 µM (inactive); in the experiment with ACHN, 2.12 µM (inactive); with BT-549, 2.93 µM (inactive); in the experiment with CAKI-1, 2.92 µM (inactive); with Hs-578T, 2.02 µM (inactive). The GI50 was 0.372 µM (active) with K562; 0.224 µM (active) in the experiment on LOX IMVI; 0.0869 µM (active) in the experiment on MCF7; 0.417 µM (active) with NCI-H460; 0.298 µM (active) in the experiment with NCI-H522; > 100 µM (inactive) in the experiment with NCI/ADR-RES. The GI50 in the experiment with OVCAR-4 is 0.986 µM (active); in the experiment on SF-268, 3.81 µM (inactive); in the experiment on SF-295 it was 0.544 µM (active); in the experiment on SK-OV-3 it was 3.55 µM (inactive); with SN12C it was 1.32 µM (inactive); with TK-10 it was > 19.8 µM (inactive). In addition, the GI50 in the experiment on U-251 was 0.191 µM (active).

For `C=CC(C)(C)n1cc(C2=C3OC(=O)C(c4cn(C(C)(C)C=C)c5ccccc45)=C3OC2=O)c2ccccc21`, the GI50 in the experiment with 786-0 was > 100 µM (inactive); in the experiment on A498, > 100 µM (inactive); in the experiment with ACHN, > 100 µM (inactive); in the experiment on BT-549, > 100 µM (inactive); with CAKI-1, > 100 µM (inactive); in the experiment on Hs-578T it was > 10 µM (inactive). The GI50 in the experiment with K562, in the experiment with LOX IMVI, in the experiment on MCF7, with NCI-H226, in the experiment on NCI-H460 and in the experiment with NCI-H522 was > 100 µM (inactive) throughout. The GI50 in the experiment with NCI/ADR-RES, in the experiment on OVCAR-4, in the experiment with SF-268, in the experiment on SF-295, with SN12C and in the experiment on TK-10 was > 100 µM (inactive) throughout. Further, the GI50 with U-251 was > 100 µM (inactive).

On to `O=C(Nc1ccccc1)c1cc(S(=O)(=O)N2CCNC2=O)c(S)cc1Cl`, for which the GI50 was > 100 µM (inactive) in the experiment on 786-0; > 100 µM (inactive) with A498; > 100 µM (inactive) with ACHN; > 100 µM (inactive) in the experiment on BT-549; 36.6 µM (inactive) with CAKI-1; > 100 µM (inactive) in the experiment with Hs-578T. Moreover, the GI50 in the experiment with K562 was > 100 µM (inactive); in the experiment with LOX IMVI, > 100 µM (inactive); in the experiment on MCF7, > 100 µM (inactive); with NCI-H460, > 100 µM (inactive); in the experiment with NCI-H522, 23.2 µM (inactive); in the experiment with NCI/ADR-RES, > 100 µM (inactive). Also, the GI50 in the experiment with OVCAR-4, in the experiment with SF-268, in the experiment with SF-295, with SK-OV-3, in the experiment on SN12C and with TK-10 was > 100 µM (inactive) in each case. Further, the GI50 with U-251 was > 100 µM (inactive).

For `CCOC(=O)c1nc2cc(C(F)(F)F)ccc2nc1Oc1ccc(C(=O)OC)cc1`, the GI50 in the experiment with 786-0, in the experiment with A498, in the experiment on ACHN, in the experiment on BT-549, in the experiment with CAKI-1 and in the experiment on Hs-578T was > 100 µM (inactive) throughout. For the same compound, the GI50 is > 100 µM (inactive) in the experiment with K562; 83.8 µM (inactive) in the experiment on LOX IMVI; > 100 µM (inactive) in the experiment with MCF7; > 100 µM (inactive) in the experiment with NCI-H226; > 100 µM (inactive) in the experiment with NCI-H460; 69.2 µM (inactive) in the experiment on NCI-H522. Besides, the GI50 in the experiment with NCI/ADR-RES is > 100 µM (inactive); with OVCAR-4, 78.7 µM (inactive); in the experiment on SF-268 it was > 100 µM (inactive); in the experiment with SF-295, > 100 µM (inactive); with SN12C, > 100 µM (inactive); in the experiment with TK-10 it was > 100 µM (inactive). Further, the GI50 in the experiment with U-251 was > 100 µM (inactive).

Turning to `COc1cc(/C=C2\N=C(c3ccccc3)N(c3ccc4c(c3)Sc3cc(N5C(=O)/C(=C/c6cc(OC)c(OC)c(OC)c6)N=C5c5ccccc5)ccc3N4)C2=O)cc(OC)c1OC`, the GI50 is 20.9 µM (inactive) in the experiment on 786-0; 20.7 µM (inactive) with A498; 19 µM (inactive) in the experiment with ACHN; 23.4 µM (inactive) in the experiment with BT-549; 18.5 µM (inactive) in the experiment on CAKI-1; 21.8 µM (inactive) with Hs-578T. For the same compound, the GI50 was 21 µM (inactive) in the experiment on K562; 22.4 µM (inactive) in the experiment with LOX IMVI; 21 µM (inactive) in the experiment on MCF7; 31.3 µM (inactive) with NCI-H460; 17.1 µM (inactive) in the experiment on NCI-H522; 31 µM (inactive) with NCI/ADR-RES. For the same compound, the GI50 in the experiment on OVCAR-4 was 18.9 µM (inactive); in the experiment on SF-268 it was 18.4 µM (inactive); in the experiment on SF-295, 22.9 µM (inactive); with SK-OV-3, 21.3 µM (inactive); in the experiment with SN12C, 25.9 µM (inactive); in the experiment with TK-10 it was 16.9 µM (inactive). For the same compound, the GI50 with U-251 was 21 µM (inactive).

For the compound `C=CCNC1=C2C[C@@H](C)C[C@@H](OC)[C@H](OC(=O)CN)[C@H](C)/C=C(\C)[C@@H](OC(N)=O)[C@H](OC)/C=C\C=C(/C)C(=O)NC(=CC1=O)C2=O`, the GI50 in the experiment with 786-0 was 1.49 µM (inactive); in the experiment with A498, 0.74 µM (active); in the experiment on ACHN, 5.13 µM (inactive); with BT-549, 10.3 µM (inactive); in the experiment on CAKI-1, 4.6 µM (inactive); in the experiment on Hs-578T, 7.73 µM (inactive). The GI50 in the experiment on K562 was 0.337 µM (active); in the experiment with LOX IMVI it was 0.528 µM (active); in the experiment on MCF7, 0.162 µM (active); with NCI-H460 it was 0.504 µM (active); in the experiment on NCI-H522, 0.706 µM (active); in the experiment on NCI/ADR-RES, 36.1 µM (inactive). Besides, the GI50 in the experiment with OVCAR-4 was 4.35 µM (inactive); in the experiment with SF-268, 5.73 µM (inactive); in the experiment on SF-295 it was 0.488 µM (active); in the experiment on SK-OV-3, 0.162 µM (active); in the experiment on SN12C, 0.497 µM (active); with TK-10 it was 0.355 µM (active). The GI50 with U-251 is 1.29 µM (inactive).

For `Cc1cc(=O)oc2c(CN3CCCCC3)c(O)ccc12`, the GI50 in the experiment on 786-0, in the experiment on A498, with ACHN, with BT-549, in the experiment on CAKI-1 and in the experiment with Hs-578T was > 100 µM (inactive) in each case. Further, the GI50 in the experiment with K562, in the experiment on LOX IMVI, with MCF7, with NCI-H226, in the experiment with NCI-H460 and in the experiment on NCI-H522 was > 100 µM (inactive) throughout. For the same compound, the GI50 in the experiment on NCI/ADR-RES, in the experiment on OVCAR-4, in the experiment on SF-268, in the experiment on SF-295, with SN12C and in the experiment with TK-10 was > 100 µM (inactive) each time. Besides, the GI50 in the experiment on U-251 was > 100 µM (inactive).
